{"source": "patent US20240408082A1", "about": "“METHODS FOR TREATING CANCERS AND TUMORS” (BEYONDSPRING PHARMACEUTICALS, INC., priority 2021, published 2024)", "type_in_all_cases": "cell-based", "key": {"[1]": {"test_system": "small cell lung cancer model LXFS 2156", "assay": "3D clonogenic assay, Example 2, LXFS 2156", "description": "(§1) The present study investigated plinabulin for anticancer activity ex vivo in 68 out of 71 originally planned patient-derived xenograft (PDX) models representing major cancer types. Experiments were performed using a 3D clonogenic assay in a 96-well format with colony count based on image analysis as a read-out. By using this assay, the investigational compound was assessed for the ability to inhibit anchorage independent growth and ex vivo colony formation of tumor cells in semi-solid medium.\n(§2) A master stock solution of plinabulin was prepared by dissolving the compound in DMSO at a concentration of 9.9 mM. Working stock solutions were prepared by diluting the master stock solution with DMSO to a concentration of 0.99 mM (330-fold the highest test concentration). Small aliquots of the master and working stock were stored at −20° C. […]\n(§3) Plinabulin was investigated in 68 PDX models representing a number of cancer types. […] The percentage of viable cells was determined in a Neubauer-hemocytometer using trypan blue exclusion. […]\n(§4) The clonogenic assay was carried out in a 96 well plate format using ultra low attachment plates. […] Cultures were incubated at 37° C. and 7.5% CO2 in a humidified atmosphere 13 days in total and monitored closely for colony growth using an inverted microscope. […]"}, "[2]": {"test_system": "small cell lung cancer model LXFS 1129", "assay": "3D clonogenic assay, Example 2, LXFS 1129", "description": "as §1, §2, §3, §4"}, "[3]": {"test_system": "gastric cancer models (Caucasian)", "assay": "3D clonogenic assay, Example 2, gastric cancer models (Caucasian)", "details": "n=3 models", "description": "as §1, §2, §3, §4"}}, "note": "pIC50: −log10 of the molar value."}
{"smiles": "CC(C)(C)c1[nH]cnc1/C=c1\\[nH]c(=O)/c(=C/c2ccccc2)[nH]c1=O", "note": "[plinabulin, (3Z,6Z)-3-Benzylidene-6-{[5-(2-methyl-2-propanyl)-1H-imidazol-4-yl]methylene}-2,5-piperazinedione]", "values": [{"measurement": "abs. IC70", "setting": "[1]", "value": 0.015, "unit": "µM"}, {"measurement": "pIC50", "setting": "[1]; read-out: abs. IC50", "value": 8.15}, {"measurement": "abs. IC70", "setting": "[2]", "value": 0.032, "unit": "µM"}, {"measurement": "geometric mean absolute IC70", "setting": "[3]", "value": "> 3", "unit": "µM"}]}
